The test has as its system Factor VII. The test can be described thus: In vivo Factor VII knockdown with anti-Factor VII siRNA in lipidoid formulations. To be noted: mice, 0.01 mg/kg siRNA dosing. As for the experimental part:
C57BL/6 mice (Charles River Labs) received either saline or siRNA in lipidoid formulations via tail vein injection at a volume of 0.01 ml/g. […] At 48 hours after administration, animals were anesthetized by isofluorane inhalation and blood was collected into serum separator tubes by retroorbital bleed. Serum levels of Factor VII protein were determined in samples using a chromogenic assay (Biophen FVII, Aniara Corporation) according to the manufacturer's protocols. A standard curve was generated using serum collected from saline-treated animals. Exemplary results are depicted in FIG. 7.
To test siRNA delivery efficacy in vivo, a mouse model for liver delivery was used. […] Once produced by hepatocytes, Factor VII is released into the bloodstream, and a baseline level of expression can be determined by simple blood draw and quantification of protein levels by colorimetric assay. By delivering anti-Factor VII siRNA to hepatocytes, knockdown of this model protein can be achieved and a percentage of silencing can be determined by comparison to an untreated control. […]
Following the initial in vivo screening experiments, two compounds were used to conduct a dose response. […] In addition to Factor VII measurement, the change in mouse body weight is recorded and a loss in weight is generally considered formulation induced toxicity (See FIG. 13b and FIG. 14b). […]

For the compound `CCCCCCCCCC[C@@H](O)CN(CCN1CCN(CCN(C[C@H](O)CCCCCCCCCC)C[C@H](O)CCCCCCCCCC)CC1)CCN(C[C@H](O)CCCCCCCCCC)C[C@H](O)CCCCCCCCCC` [(R)-C12-200], the “reduction of systemic Factor VII” value (preliminary) is recorded as “approximately 50%”.
As for `CCCCCCCCCCC(O)CN(CCN1CCN(CCN(CC(O)CCCCCCCCCC)CC(O)CCCCCCCCCC)CC1)CCN(CC(O)CCCCCCCCCC)CC(O)CCCCCCCCCC` (centres unmarked) [C12-200], the “difference between Factor VII results of racemic C12-200 and those of the R or S forms” value was “insignificant”.

The values are drawn from patent US8450298B2, “Aminoalcohol lipidoids and uses thereof” (Massachusetts Institute of Technology, priority 2008, dated 2013).
